Measurements published in US20210340502A1, “Generation of Post-Mitotic Migratory Cortical Interneurons” (The McLean Hospital Corporation, priority 2018, published 2021).
Entries after “also recorded” stand apart in the source; their conditions may differ.

Columns and labels:
MGE progenitors = test: KI67+ proliferating MGE progenitors after chemical treatment (immunocytochemistry and cell counting); format: cell-based; conditions: for proportion of proliferating MGE progenitors (in words): 3 week-old MGE progenitors treated for a week; for Percentage of proliferating cells (Average ± SEM, N): KI67+ cells, 3 week-old MGE progenitors treated 1 week, 20 μM FdU, 1% CultureOne, 10 mM DAPT, 2 μM PD0332991 or combination (CDP)
Protocol: For chemical treatment of cINs, the differentiated progenitors were seeded on PLO/FN-coated surface at 3 weeks after differentiation, and cultured in B27GB media without or with each chemical, 20 μM FdU (Sigma-Aldrich, Natick, Mass., USA), 1% CultureOne (C, Thermo Fisher, Waltham, Mass., USA), […] (D, Sigma-Aldrich, Natick, Mass., USA), and 2 μM PD0332991 (P, Sigma-Aldrich, Natick, Mass., US), or with combination of CultureOne, DAPT and PD0332991 (CDP) for the time period designated in each Figure.
Immunocytochemistry and cell counting. cINs on coverslips were fixed using 4% paraformaldehyde (PFA, Electron Microscopy Sciences, Hatfield, Pa.) for 15 min, washed with PBS and used for staining. The spheres at different differentiation stages were fixed by 4% PFA for 15 min, rinsed with PBS, cryo-protected in the 30% sucrose (Thermo Fisher, Waltham, Mass., USA) overnight at 4° C., mounted on the chuck using the O.C.T. Compound (Thermo Fisher, Waltham, Mass., USA) and cryosectioned at 40 μm using a Leica CM1850 cryostat (Leica Biosystem, Buffalo Grove, Ill., USA). Fixed cells or sphere sections were incubated with blocking/permeablization buffer (PBS with 10% normal serum and 0.1% Triton X-100) for 10 min. The samples were then incubated in primary antibodies in antibody dilution buffer (PBS containing 2% normal serum) overnight at 4° C. After washing with PBS, cells were incubated with fluorescently labeled secondary antibodies and DAPI (Invitrogen, Waltham, Mass., USA)) in antibody dilution buffer for 1 h at room temperature. Following the PBS wash, the samples were mounted with Fluoromount-G (SouthernBiotech, Birmingham, Ala., USA).
For cell counting, multi point function in Image J software (Version 1.51 p, NIH, Bethesda, Md., USA) was used. Percentage of positive cells for each marker was calculated by dividing by DAPI-stained total nuclei number from at least 3 separate biological replicates. For each staining, a total of at least 500 cells were counted for each group.

H9 cINs = test: Cryopreservation of cINs with Trehalose in freezing media; format: cell-based, human
Protocol: For cryopreservation, the trypsinized cells were resuspended in freezing media (FBS with 10% DMSO) with or without 100 mM Trehalose and were frozen slowly overnight in an insulated container at −80° C. deep freezer. After 24 hours, the stocks were moved to liquid nitrogen storage until further experiments. Frozen stocks were thawed quickly in a 37° C. water bath, transferred to 15 ml conical tubes with 5 ml media, centrifuged and resuspended in B27GB media with ROCK inhibitor for plating and further experiments.

cIN organoids = test: Passaging of cIN organoids with Trehalose; format: cell-based, human
Protocol: For passaging cINs, cells were trypsinized by 0.05% trypsin (Thermo Fisher, Waltham, Mass., USA) supplemented with or without 10 mM Trehalose (Sigma-Aldrich, Natick, Mass., USA). After 5 minutes' incubation at 37° C., the spheres were triturated to dissociate the spheres. An equal volume of DMEM media with 10% FBS (Hyclone, Marlborough, Mass., USA) was added to neutralize Trypsin. In addition, Turbo DNase (2 U/ml, Thermo Fisher, Waltham, Mass., USA) was added to help clear released DNAs from culture. The cells were then kept in the incubator for additional 15 min to remove any sticky DNA mass released during trituration. After incubation, the cells were centrifuged and resuspended by B27GB media with ROCK inhibitor. To exclude the dead cell cluster, the resuspended cells were filtered through a cell strainer cap (35 μm nylon mesh, Corning, N.Y., USA), and plated onto a PLO/FN-coated surface (Poly-L-Ornithine, 15 ug/ml, Sigma-Aldrich, Natick; Fibronectin, 10 ug/ml, Thermo Fisher, Waltham, Mass., USA) for the subsequent experiments.

| SMILES | proportion of proliferating MGE progenitors (in words) (MGE progenitors) | Percentage of proliferating cells (Average ± SEM, N) (MGE progenitors) | survival of cryopreserved cINs after freeze-thaw (H9 cINs; 100 mM Trehalose in freezing media) | cIN phenotypes after freeze-thaw (H9 cINs; SOX6, GAD, β-TUBLIN three weeks after thawing) | viability during cryopreservation (H9 cINs; optimized condition, compared to the cINs passaged without cryopreservation) [%] | survival rate during passaging (cIN organoids; 6 weeks after differentiation, 10 mM Trehalose in trypsin) | increase in survival rate during passaging (cIN organoids; older organoids, after six months' differentiation) |
| --- | --- | --- | --- | --- | --- | --- | --- |
| O=c1[nH]c(=O)n([C@H]2C[C@H](O)[C@@H](CO)O2)cc1F [FdU, 5-fluoro-2′-deoxyuridine] | did not influence the proportion of proliferating MGE progenitors; also recorded: not effective in reducing immature proliferating cell numbers | 31.719 ± 1.486, 4% | – | – | – | – | – |
| CC(=O)c1c(C)c2cnc(Nc3ccc(N4CCNCC4)cn3)nc2n(C2CCCC2)c1=O [PD0332991] | significantly reduced the proportion of proliferating progenitors; also recorded: effective in regulating MGE cell cycle exit | 5.160 ± 1.042, 4% | – | – | – | – | – |
| OC[C@H]1O[C@H](O[C@H]2O[C@H](CO)[C@@H](O)[C@H](O)[C@H]2O)[C@H](O)[C@@H](O)[C@@H]1O [Trehalose] | – | – | significantly increased survival | without affecting their phenotypes | 65.27±8.97 | significantly increased the survival rate | much more pronounced |
| C[C@H](NC(=O)Cc1cc(F)cc(F)c1)C(=O)N[C@H](C(=O)OC(C)(C)C)c1ccccc1 [DAPT] | significantly reduced the proportion of proliferating progenitors; also recorded: worked well to control cell cycle exit of MGE cells | 8.835 ± 1.618, 4% | – | – | – | – | – |
